This is an account of results in PubChem BioAssay AID328 (DTP/NCI, 2004).

Values joined by “and” are separate entries in the source; they are usually repeats but may differ in a detail not shown here. Equal entries are not always repeated. Inconclusive results and toxic doses are left out.

In the test the test system is BDF1 mice, P388 leukemia ip, median survival T/C. In words: NCI In Vivo Anticancer Drug Screen. Data for tumor model P388 Leukemia (intraperitoneal) in B6D2F1 (BDF1) mice. Particulars: endpoint: median survival time, higher = longer survival. The gist of the method:
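Read-out is survival of treated animals expressed relative to the vehicle group, as a T/C ratio.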

Setting [1] is: dose: 100.0 mg/kg/injection, schedule: Q04DX003 (ip), vehicle: Klucel (hydroxypropylcellulose) (HPC).
[2] abbreviates: dose: 50.0 mg/kg/injection, schedule: Q04DX003 (ip), vehicle: water.
The mark [3] stands for this setting: dose: 100.0 mg/kg/injection, schedule: Q04DX003 (ip), vehicle: water.
Setting [4] is: dose: 200.0 mg/kg/injection, schedule: Q04DX003 (ip), vehicle: water.
[5] abbreviates: dose: 400.0 mg/kg/injection, schedule: Q04DX003 (ip), vehicle: water.
Setting [6] is: dose: 50.0 mg/kg/injection, schedule: Q01DX009 (ip), vehicle: saline with Tween-80.
Setting [7] is: dose: 100.0 mg/kg/injection, schedule: Q01DX009 (ip), vehicle: Klucel (hydroxypropylcellulose) (HPC).
The mark [8] stands for this setting: dose: 200.0 mg/kg/injection, schedule: Q01DX009 (ip), vehicle: Klucel (hydroxypropylcellulose) (HPC).
The mark [9] stands for this setting: dose: 400.0 mg/kg/injection, schedule: Q01DX009 (ip), vehicle: Klucel (hydroxypropylcellulose) (HPC).

As to `CC1(C)OS2(c3ccccc3)OC(=O)c3cccc1c32` (configuration not stated), the T/C is, setting by setting: (dose: 50.0 mg/kg/injection, schedule: Q04DX002 (ip), vehicle: saline) 94 % of control; (dose: 100.0 mg/kg/injection, schedule: Q04DX002 (ip), vehicle: saline) 100 % of control; (dose: 200.0 mg/kg/injection, schedule: Q04DX002 (ip), vehicle: saline) 100 % of control.
On to `CC(=O)OCC(=O)[C@@]1(O)[C@H](C)C[C@H]2[C@@H]3C=C(C)C4=Cc5c(cnn5-c5ccc(F)cc5)C[C@]4(C)[C@H]3[C@@H](O)C[C@@]21C`, for which the T/C (dose: 0.19 mg/kg/injection, schedule: Q01DX009 (sc), vehicle: steriod suspending solution) is 120 % of control; the T/C (dose: 0.39 mg/kg/injection, schedule: Q01DX009 (sc), vehicle: steriod suspending solution) is 110 % of control; the T/C (dose: 0.58 mg/kg/injection, schedule: Q04DX003 (sc), vehicle: steriod suspending solution) is 118 % of control; the T/C (dose: 0.78 mg/kg/injection, schedule: Q01DX009 (sc), vehicle: steriod suspending solution) was 90 % of control; the T/C (dose: 1.17 mg/kg/injection, schedule: Q04DX003 (sc), vehicle: steriod suspending solution) is 118 % of control; the T/C (dose: 2.34 mg/kg/injection, schedule: Q04DX003 (sc), vehicle: steriod suspending solution) was 118 % of control. Also, the T/C (dose: 3.4 mg/kg/injection, schedule: Q04DX003 (sc), vehicle: steriod suspending solution) is 100 % of control; the T/C (dose: 5.3 mg/kg/injection, schedule: Q04DX003 (sc), vehicle: steriod suspending solution) is 90 % of control; the T/C (dose: 6.0 mg/kg/injection, schedule: Q04DX003 (ip), vehicle: Klucel (hydroxypropylcellulose) (HPC)) is 105 % of control; the T/C (dose: 12.0 mg/kg/injection, schedule: Q04DX003 (ip), vehicle: Klucel (hydroxypropylcellulose) (HPC)) was 105 % of control; the T/C (dose: 25.0 mg/kg/injection, schedule: Q04DX003 (ip), vehicle: Klucel (hydroxypropylcellulose) (HPC)) is 90 % of control; the T/C under setting [1] was 90 % of control.
As for `Cc1ccn(C(=O)CC#N)n1`, the T/C reads like this: (dose: 75.0 mg/kg/injection, schedule: Q01DX009 (ip), vehicle: saline with Tween-80) 91 % of control; (dose: 150.0 mg/kg/injection, schedule: Q01DX009 (ip), vehicle: saline with Tween-80) 97 % of control; (dose: 300.0 mg/kg/injection, schedule: Q01DX009 (ip), vehicle: saline with Tween-80) 92 % of control.
Regarding `C1CNCOC1`, the T/C is, setting by setting: (dose: 25.0 mg/kg/injection, schedule: Q04DX003 (ip), vehicle: saline) 105 % of control; (dose: 50.0 mg/kg/injection, schedule: Q04DX003 (ip), vehicle: saline) 119 % of control.
For `O=C1c2ccccc2C(=O)N1c1cc(O)cc(O)c1`, the T/C by setting is: (dose: 1.0 mg/kg/injection, schedule: Q01DX009 (ip), vehicle: water) 109 % of control; (dose: 2.0 mg/kg/injection, schedule: Q01DX009 (ip), vehicle: water) 113 % of control; (dose: 4.0 mg/kg/injection, schedule: Q01DX009 (ip), vehicle: water) 95 % of control and 98 % of control and 105 % of control; (dose: 8.0 mg/kg/injection, schedule: Q01DX009 (ip), vehicle: water) 90 % of control and 95 % of control; (dose: 16.0 mg/kg/injection, schedule: Q01DX009 (ip), vehicle: water) 100 % of control and 115 % of control; (dose: 20.0 mg/kg/injection, schedule: Q01DX009 (ip), vehicle: water) 101 % of control. Further, the T/C (dose: 32.0 mg/kg/injection, schedule: Q01DX009 (ip), vehicle: water) was 109 % of control; the T/C under setting [2] is 100 % of control; the T/C under setting [3] was 106 % of control; the T/C under setting [4] was 97 % of control; the T/C under setting [5] is 92 % of control.
With `CC(=N\O)/C(C)=N/O.CC(=N\O)/C(C)=N/O.O.[CH3-].[Co]`, the T/C was 100 % of control (dose: 6.25 mg/kg/injection, schedule: Q01DX009 (ip), vehicle: saline) and 97 % of control (dose: 12.5 mg/kg/injection, schedule: Q01DX009 (ip), vehicle: saline).
Regarding `c1ccc(P(OC2CCCCC2)OC2CCCCC2)cc1`, the T/C is 109 % of control under setting [6]; 109 % of control (dose: 100.0 mg/kg/injection, schedule: Q01DX009 (ip), vehicle: saline with Tween-80); 110 % of control (dose: 200.0 mg/kg/injection, schedule: Q01DX009 (ip), vehicle: saline with Tween-80).
`CC(C)(Br)C(=O)c1ccc(-c2ccccc2)cc1`: the T/C is, setting by setting: (dose: 12.5 mg/kg/injection, schedule: Q01DX009 (ip), vehicle: water) 109 % of control; (dose: 25.0 mg/kg/injection, schedule: Q01DX009 (ip), vehicle: water) 96 % of control; (dose: 25.0 mg/kg/injection, schedule: Q04DX003 (ip), vehicle: water) 107 % of control; (dose: 50.0 mg/kg/injection, schedule: Q01DX009 (ip), vehicle: water) 117 % of control; under setting [2], 107 % of control; (dose: 100.0 mg/kg/injection, schedule: Q01DX009 (ip), vehicle: water) 102 % of control. Further, the T/C under setting [1] is 90 % of control; the T/C under setting [3] is 107 % of control; the T/C (dose: 200.0 mg/kg/injection, schedule: Q01DX009 (ip), vehicle: water) was 109 % of control; the T/C (dose: 200.0 mg/kg/injection, schedule: Q04DX003 (ip), vehicle: Klucel (hydroxypropylcellulose) (HPC)) is 100 % of control; the T/C under setting [4] is 107 % of control; the T/C (dose: 400.0 mg/kg/injection, schedule: Q01DX009 (ip), vehicle: water) is 117 % of control. The T/C was 100 % of control (dose: 400.0 mg/kg/injection, schedule: Q04DX003 (ip), vehicle: Klucel (hydroxypropylcellulose) (HPC)) and 110 % of control under setting [5].
Regarding `C1=CCC(C2OCC3(CO2)COC(C2CC=CCC2)OC3)CC1` (configuration not stated), the T/C by setting is: under setting [7], 96 % of control; under setting [8], 88 % of control; under setting [9], 88 % of control.
On to `CN1CCN(c2ccc([N+](=O)[O-])c3no[n+]([O-])c23)CC1`, for which the T/C was 166 % of control (dose: 10.0 mg/kg/injection, schedule: Q01DX009 (ip), vehicle: saline with Tween-80) and 169 % of control (dose: 20.0 mg/kg/injection, schedule: Q01DX009 (ip), vehicle: saline with Tween-80).
`CC[C@@H](c1ccc(O)cc1)[C@@H](CC)c1ccc(O)cc1`: the T/C (dose: 50.0 mg/kg/injection, schedule: Q01DX009 (ip), vehicle: saline) is 90 % of control; the T/C (dose: 100.0 mg/kg/injection, schedule: Q01DX009 (ip), vehicle: saline) was 109 % of control; the T/C (dose: 100.0 mg/kg/injection, schedule: Q04DX003 (ip), vehicle: alcohol) is 94 % of control; the T/C (dose: 200.0 mg/kg/injection, schedule: Q04DX003 (ip), vehicle: alcohol) was 100 % of control.
Regarding `CC(=O)OC/C=C(C)/C=C/C=C(C)/C=C/C1=C(C)CCCC1(C)C`, the T/C by setting is: (dose: 100.0 mg/kg/injection, schedule: Q01DX010 (ip), vehicle: acetone) 107 % of control; (dose: 200.0 mg/kg/injection, schedule: Q01DX010 (ip), vehicle: acetone) 89 % of control; (dose: 800.0 mg/kg/injection, schedule: Q01DX010 (ip), vehicle: acetone) 121 % of control.
On to `C=CCCc1cc(C(=O)N(c2ccccc2)C(C(=O)O)c2ccccc2)ccc1OC` (configuration not stated), for which the T/C (dose: 100.0 mg/kg/injection, schedule: Q04DX002 (ip), vehicle: saline with Tween-80) was 101 % of control; the T/C (dose: 200.0 mg/kg/injection, schedule: Q04DX002 (ip), vehicle: saline with Tween-80) is 100 % of control; the T/C (dose: 400.0 mg/kg/injection, schedule: Q04DX002 (ip), vehicle: saline with Tween-80) is 108 % of control.
On to `COC(=O)c1ccccc1C1(c2ccccc2C(=O)OC)OC(=O)c2ccccc21`, for which the T/C under setting [7] was 100 % of control, the T/C under setting [8] is 100 % of control and the T/C under setting [9] is 100 % of control.
With `S=C(NCCNC(=S)[S][Sn]([c]1ccccc1)([c]1ccccc1)[c]1ccccc1)[S][Sn]([c]1ccccc1)([c]1ccccc1)[c]1ccccc1`, the T/C was 100 % of control (dose: 3.3 mg/kg/injection, schedule: Q01DX009 (ip), vehicle: saline with Tween-80); 117 % of control (dose: 5.0 mg/kg/injection, schedule: Q01DX009 (ip), vehicle: saline with Tween-80); 108 % of control (dose: 7.5 mg/kg/injection, schedule: Q01DX009 (ip), vehicle: saline with Tween-80); 115 % of control under setting [6].
